Reference: ChEMBL document CHEMBL1158749, “Cytotoxic cembranoid diterpenes from a soft coral Sinularia gibberosa” (J Nat Prod, 2005)
Values after ≈ are worked out from the molar mass of the structure shown.

Columns and labels:
Assay type in all cases: functional, cell-based
HL-60 = assay: Cytotoxicity against human HL60 cells by MTT assay
BGC-823 = assay: Cytotoxicity against human BGC823 cells by SRB assay
MDA-MB-435 = assay: Cytotoxicity against human MDA-MB-435 cells by SRB assay

**Q.** With C=C1C(=O)O[C@@H]2[C@@H]1C[C@H](O)[C@@](O)(CO)CC/C=C(\C)CC/C=C(\C)[C@@H]2O [SINULAROLIDE A] as the molecule, how does the IC50 (HL-60) read?
**A.** > 10 µg/mL

**Q.** What about the IC50 (BGC-823) of the same molecule?
**A.** > 10 µg/mL

**Q.** And the IC50 (MDA-MB-435)?
**A.** > 10 µg/mL

**Q.** Which IC50 (HL-60) does the source give for C=C1C(=O)O[C@@H]2[C@@H]1C[C@H]1O[C@]1(CO)CC/C=C(\C)CC/C=C(\C)[C@H]2O [SINULAROLIDE B] here?
**A.** 5.2 µg/mL (≈ 14.9 µM)

**Q.** And the IC50 (BGC-823)?
**A.** 6.3 µg/mL (≈ 18.1 µM)

**Q.** And the IC50 (MDA-MB-435)?
**A.** 8 µg/mL (≈ 23 µM)

**Q.** How did the IC50 (HL-60) turn out when C=C1C(=O)O[C@@H]2[C@@H]1C[C@H]1O[C@]1(CO)CC/C=C(\C)CC/C=C(\C)[C@@H]2O [SINULAROLIDE C] was run?
**A.** 5.1 µg/mL (≈ 14.6 µM)

**Q.** What about the IC50 (BGC-823) of the same molecule?
**A.** 5.2 µg/mL (≈ 14.9 µM)

**Q.** And the IC50 (MDA-MB-435)?
**A.** 7.7 µg/mL (≈ 22.1 µM)

**Q.** Which results are given for C=C1C(=O)O[C@H]2C/C(C)=C/CC/C(C)=C/CC[C@@]3(CO)O[C@@H]3C[C@H]12 [SINULAROLIDE D]?
**A.** IC50 (HL-60): 2.3 µg/mL (≈ 6.92 µM); IC50 (BGC-823): 6.1 µg/mL (≈ 18.3 µM); IC50 (MDA-MB-435): > 10 µg/mL

**Q.** For C=C1C(=O)O[C@@H]2[C@@H]1C[C@@H]1O[C@]1(C)CC/C=C(\C)CC/C=C(\C)[C@@H]2O [SINULAROLIDE E], which IC50 (HL-60) is on record?
**A.** 6 µg/mL (≈ 18 µM)

**Q.** What about the IC50 (BGC-823) of the same molecule?
**A.** 8.6 µg/mL (≈ 25.9 µM)

**Q.** What about the IC50 (MDA-MB-435) of the same molecule?
**A.** 2.1 µg/mL (≈ 6.32 µM)
